Converted amounts (≈) assume the structure as drawn. Where two headings read alike, the source gives them in different places.
Columns and labels:
EBV = EBV assay: superinfection of Raji or Daudi cells with P3HR-1, immunofluorescence for EA and VCA; type: cell-based, Epstein-Barr Virus (P3HR-1); conditions: human gammaherpesvirus 4; read-out: Antiviral Activities (EC50) EBV
Source text: There are two prototypes of infectious EBV. One is exemplified by the virus derived from supernatant fluids of the P3HR-1cell line. This cell line produces nontransforming virus that causes the production of early antigen (EA) after primary infection or superinfection of B cell lines. The other prototype is exemplified by the B-95-8 virus. This virus immortalized cord blood lymphocytes and induced tumors in marmosets. […] The virus used in our assays is P3HR-1.
Ramos is an exceptional B cell line derived from Burkitt's lymphoma tumor but containing no detectable EBV genome copies and is EBNA negative. Ramos/AW was obtained by in vitro infection of Ramos with the P3HR-1 virus and contains one resident EBV genome copy/cell. Raji is a Burkitt's lymphoma cell line containing 60 EBV genomes/cell, and will be the primary cell used for screening antiviral activity against EBV EA expression. Daudi is a low level producer that contains 152 EBV genome copies/cell. It spontaneously expresses EBV EA in 0.25%-0.5% of the cells. It will be used in follow-up studies to confirm activity. These cell lines respond to superinfection by EBV by expressing EA(D), EA(R), and VCA. All cell lines are maintained in RPMI-1640 medium supplemented by 10% FCS, L-glutamine and 100 μg/mL gentamicin. The cultures are fed twice weekly and the cell concentration adjusted to 3×10^5/mL. The cells are kept at 37° C. in a humidified atmosphere with 5% CO2.
Cells are infected with the P3HR-1 strain of EBV and the drugs to be tested are added after adsorption (45 minutes at 37° C.) and washing of the cell cultures. The cultures are incubated for two days in complete medium to allow viral gene expression. Following the 48 hr incubation period, the number of cells of each sample are counted and smears made. Monoclonal antibodies to the different EA components and VCA are then added to the cells incubated and washed. This is followed by a fluorescein conjugated rabbit anti-mouse Ig antibody; and the number of fluorescence positive cells in the smears are counted. The total number of cells in the cultures positive for EA or VCA are then calculated and compared.

HBV = HBV replication in cultures of 2.2.15 cells (HBV DNA blot hybridization); type: cell-based
Protocol: Test compounds are then added daily for a continuous 9 day period. Culture medium (changed daily during the treatment period) is collected and stored for analysis of extracellular (virion) HBV DNA after 0, 3, 6, and 9 days of treatment. Treated cells are lysed 24 hours following day 9 of treatment for the analysis of intracellular HBV genomic forms. HBV DVA is then analyzed in a quantitative and qualitative manner for overall levels of HBV DNA (both extracellular and intracellular DNA) and the relative rate of HBV replication (intracellular DNA).
Both intracellular and extracellular HBV DNA are analyzed in order to (i) allow for verification of compound efficacy and (ii) provide possible data on the target site in the HBV replication pathway for the compound from examination of the pattern of viral replicative forms. The culture medium is changed daily during the treatment period to (i) prevent the buildup of potentially toxic metabolites derived from test compounds and (ii) provide an analysis of HBV virion production during discrete 24-hour intervals which enables a quantitative comparison of any effect on virion production.
The analysis of HBV DNA is performed using blot hybridization techniques (Southern and slot blot) and [^32P]-labeled HBV-specific probes. HBV DNA levels are measured by comparison to known amounts of HBV DNA standards applied to every nitrocellulose membrane (gel or slot blot). An AMBIS beta scanner, which measures the radioactive decay of the hybridized probes directly from the nitrocellulose membranes, is used for the quantitative analysis. Standard curves, generated by multiple analyses, are used to correlate CPM measurements made by the beta scanner with relative levels of target HBV DNA. The levels of HBV virion DNA released into the culture medium are analyzed by a slot blot hybridization procedure. HBV DNA levels are then compared to those at Day 0 to determine the effect of drug treatment.
The levels of RI and episomal monomers are used as an indicator of the relative level of HBV replication. Integrated HBV DNA is used to normalize the relative amounts of DNA in each lane because the levels of this class of HBV DNA would be expected to remain constant on a per cell basis. […] Inhibition of HBV DNA replication is indicated by the loss of RI without changes in the level of integrated HBV DNA.

VZV = VZV plaque reduction assay in human foreskin fibroblast cells; type: cell-based, Varicella Zoster Virus (Ellen strain); conditions: Human alphaherpesvirus 3, Fibroblast; read-out: Antiviral Activities (EC50) VZV
Protocol: [table] Two days prior to use, HFF cells are plated into six-well plates and incubated at 37° C. with 5% CO2 and 90% humidity. On the date of assay, the drug is made up at twice the desired concentration in 2×MEM and then serially diluted 1:5 in 2×MEM using six concentrations of drug. […] The media is then aspirated from the wells and 0.2 mL of virus is added to each well in duplicate with 0.2 mL of media being added to drug toxicity wells. The plates are then incubated for one hour with shaking every fifteen minutes. […] The drug agarose mixture is applied to each well in 2 mL volume and the plates then incubated for three days, after which the cells were stained with a 1.5% solution of neutral red. At the end of 4-6 hr incubation period, the stain is aspirated, and plaques counted using a stereomicroscope at 10× magnification. The procedure is essentially the same as for the HSV plaque assay described above with two exceptions: 1. After addition of the drug, the plates are incubated for ten days. 2.

Rhinovirus = Rhinovirus antiviral assay (CPE inhibition, neutral red uptake, virus yield); type: cell-based; conditions: Enterovirus
Measles Virus = assay: Measles virus antiviral assay (CPE inhibition, neutral red uptake, virus yield); type: cell-based, Measles virus strain CC; conditions: Measles morbillivirus
[1] = tested on: Respiratory Syncytial Virus; assay: Respiratory syncytial virus antiviral assay (CPE inhibition, neutral red uptake); type: cell-based, Respiratory syncytial virus strain Utah 89; conditions: human respiratory syncytial virus
HIV = assay: Anti-HIV evaluation by MTT-tetrazolium method (inhibition of CPE in MT-2 / CEM-SS cells); type: cell-based; conditions: Human immunodeficiency virus 1, CEM-SS; read-out: Antiviral Activities (EC50) HIV
Protocol: This example illustrates the anti-HIV activity of various coumarin and chromene compounds which were evaluated using the published MTT-tetrazolium methods^8. Retroviral agents AZT and DDC were used as controls for comparison purposes.
The cells used for screening were the MT-2 and the human T4-lymphoblastoid cell line, CEM-SS, and were grown in RPMI 1640 medium supplemented with 10% fetal (v/v) heat-inactivated fetal calf serum and also containing 100 units/mL penicillin, 100 μg/mL streptomycin, 25 mM HEPES and 20 μg/mL gentamicin. The medium used for dilution of drugs and maintenance of cultures during the assay was the same as above. The HTLV-IIIB and HTLV-RF were propagated in CEM-SS. The appropriate amounts of the pure compounds for anti-HIV evaluations were dissolved in DMSO, then diluted in medium to the desired initial concentration. The concentrations (M medium) employed were […]; 0.001 μM; 0.0032 μM; 0.01 μM; 0.032 μM; 0.1 μM; 0.32 μM; 1 μM; 3.2 μM; 10 μM; 32 μM; and 100 μM. Each dilution was added to plates in the amount of 100 μL/well. Drugs were tested in triplicate wells per dilution with infected cells while in duplicate wells per dilution with uninfected cells for evaluation of cytotoxicity. On day 6 (CEM-SS cells) and day 7 (MT-2 cells) post-infection, the viable cells were measured with a tetrazolium salt, MTT (5 mg/mL), added to the test plates. A solution of 20% SDS in 0.001 N HCl is used to dissolve the MTT formazan produced. The optical density value was a function of the amount of formazan produced which was proportional to the number of viable cells. The percent inhibition of CPE per drug concentration was measured as a test over control and expressed in percent (T/C %).

HIV-1 = conditions: cited from earlier work
[2] = tested on: human T-lymphoblastic cells (CEM-SS); conditions: cited from earlier work
[3] = tested on: pyridinone-resistant A17 virus; conditions: cited from earlier work
[4] = tested on: AZT-resistant G-9106 strain of HIV; conditions: cited from earlier work
[5] = CPE inhibition, read-out: Antiviral Activities (EC50) Rhinovirus (CPE)
[6] = neutral red (NR) dye uptake, read-out: Antiviral Activities (EC50) Rhinovirus (NR)
[7] = CPE inhibition, read-out: Antiviral Activities (EC50) Measles (CPE)
[8] = neutral red (NR) dye uptake, read-out: Antiviral Activities (EC50) Measles (NR)
[9] = CPE inhibition, read-out: Antiviral Activities (EC50) Respiratory Syncitial (CPE)
[10] = neutral red (NR) dye uptake, read-out: Antiviral Activities (EC50) Respiratory Syncitial (NR)
[11] = Hepatitis B virus; read-out: Antiviral Activities (EC50) HBV
[12] = readout not stated, read-out: Antiviral Activities (EC50) Rhinovirus

Structure (SMILES)	EC50 (EBV)	EC50 (VZV)	EC50 (Rhinovirus; [5])	EC50 (Rhinovirus; [6])	EC50 (Measles Virus; [7])	EC50 (Measles Virus; [8])	EC50 [1, 9]	EC50 [1, 10]	EC50 (HIV)	EC50 (HBV; [11])	further results
CCCc1cc(=O)oc2cc(OS(=O)(=O)c3ccc(C)cc3)cc(OS(=O)(=O)c3ccc(C)cc3)c12	> 50 µg/mL	> 20 µg/mL	2 µg/mL (≈ 3.78 µM)	1 µg/mL (≈ 1.89 µM)	3 µg/mL (≈ 5.68 µM)	1 µg/mL (≈ 1.89 µM)	2 µg/mL (≈ 3.78 µM)	1 µg/mL (≈ 1.89 µM)	> 3 µg/mL		EC50 (HBV; Hepatitis B virus, read-out: Antiviral Activities (EC50) HBV): > 5 µg/mL; EC50 (Measles Virus; read-out: Antiviral Activities (EC50) Measles (virus yield)): 3 µg/mL (≈ 5.68 µM)
CCCc1cc(=O)oc2cc(OCC(C)(C)C(=O)OC)c3c(c12)OC(C)(C)C=C3	0.08 µg/mL (≈ 0.2 µM)	> 20 µg/mL			40 µg/mL (≈ 99.9 µM)	30 µg/mL (≈ 74.9 µM)			2 µg/mL (≈ 4.99 µM)	> 4 µg/mL	EC50 (Rhinovirus; [12]): 25 µg/mL (≈ 62.4 µM); EC50 ([1]; readout not stated, read-out: Antiviral Activities (EC50) Respiratory Syncitial): > 100 µg/mL
CCCc1cc(=O)oc2c(C(=O)CC)c(O)c(C(=O)CC)c(O)c12	1.2 µg/mL (≈ 3.61 µM)	> 20 µg/mL			> 100 µg/mL	> 100 µg/mL	20 µg/mL (≈ 60.2 µM)	10 µg/mL (≈ 30.1 µM)	> 2 µg/mL	> 3 µg/mL	EC50 (Rhinovirus; [12]): 0.39 µg/mL (≈ 1.17 µM)
CCC/C(=C/C(=O)OC)c1c(O)c2c(c3c1OC(C)(C)[C@H](O)[C@H]3O)O[C@H](C)[C@@H](C)[C@@H]2O	> 50 µg/mL	> 20 µg/mL	20 µg/mL (≈ 45.8 µM)	5 µg/mL (≈ 11.5 µM)	10 µg/mL (≈ 22.9 µM)	20 µg/mL (≈ 45.8 µM)	100 µg/mL (≈ 229 µM)	> 100 µg/mL	> 2 µg/mL	> 4 µg/mL	
CCCc1cc(=O)oc2c3c(c4c(c12)OC(C)(C)[C@H](O)[C@H]4O)O[C@H](C)[C@@H](C)[C@@H]3O	> 50 µg/mL	> 100 µg/mL	20 µg/mL (≈ 49.4 µM)	50 µg/mL (≈ 124 µM)	10 µg/mL (≈ 24.7 µM)	100 µg/mL (≈ 247 µM)	> 100 µg/mL	100 µg/mL (≈ 247 µM)	> 2.5 µg/mL	> 4 µg/mL	
CCCc1cc(=O)oc2c3c(c4c(c12)OC(C)(C)C(O)C4O)O[C@H](C)[C@@H](C)[C@@H]3O (stereo partly drawn)	9.5 µg/mL (≈ 23.5 µM)	> 20 µg/mL	10 µg/mL (≈ 24.7 µM)	10 µg/mL (≈ 24.7 µM)	10 µg/mL (≈ 24.7 µM)	10 µg/mL (≈ 24.7 µM)	> 100 µg/mL	> 100 µg/mL	> 8 µg/mL	> 4 µg/mL	
CCCc1cc(=O)oc2c3c(c4c(c12)OC(C)(C)[C@H](O)[C@H]4OC(=O)c1cccc(Cl)c1)O[C@H](C)[C@@H](C)C3=O	29.2 µg/mL (≈ 54 µM)	3.5 µg/mL (≈ 6.47 µM)	0.1 µg/mL (≈ 0.185 µM)	0.1 µg/mL (≈ 0.185 µM)	3 µg/mL (≈ 5.55 µM)	0.4 µg/mL (≈ 0.739 µM)	3 µg/mL (≈ 5.55 µM)	4 µg/mL (≈ 7.39 µM)	> 3 µg/mL	2.6 µg/mL (≈ 4.81 µM)	EC50 (Rhinovirus; read-out: Antiviral Activities (EC50) Rhinovirus (virus yield)): 4 µg/mL (≈ 7.39 µM)
CCCc1cc(=O)oc2c3c(c4c(c12)OC(C)(C)C=C4)O[C@H](C)[C@@H](C)[C@@H]3O [(+)-calanolide A, (+)-Calanolide A]											protection against the cytopathic effects of HIV-1 (HIV-1; down to a concentration of 0.1 μM): 100%; EC50 (HIV-1; human T-lymphoblastic cells (CEM-SS), read-out: EC50, HIV-1 replication in CEM-SS): 0.1 µM; IC50 [2]: 20 µM; activity against pyridinone-resistant A17 virus [3]: active; activity against AZT-resistant G-9106 strain of HIV [4]: active
CCCc1cc(=O)oc2cc(OC(=O)C(C)(C)C)cc(O)c12 [Compound 7b, 5-Hydroxy-7-pivaloyloxy-4-propylcoumarin]											melting point: 158 to 160 °C

Reference: patent US20030176494A1, “Novel coumarin and chromene compounds and methods of preparation and use thereof for treating or preventing viral infections” (priority 2001, published 2003)
